Results reported in ChEMBL document CHEMBL3137667, “[Drug-induced liver injury; fourteenth updated edition of the bibliographic database of liver injuries and related drugs]” (Gastroenterol Clin Biol, 2004).

Key:
[1] = human
[2] = human, serum
[3] = human; remark: listed apart in the source
[4] = human; remark: listed apart in the source
[5] = human, serum; remark: listed apart in the source
[6] = Highest frequency of acute liver toxicity observed during clinical trials, expressed as a percentage. [column '% AIGUE' in source]; settings: human
[7] = human; remark: listed apart in the source
[8] = human; remark: listed apart in the source
[9] = human; remark: listed apart in the source
[10] = Highest frequency of moderate liver toxicity observed during clinical trials, expressed as a percentage. [column '% BIOL' in source]; settings: human
[11] = human, serum, 4383 h
[12] = human; remark: listed apart in the source
[13] = human; remark: listed apart in the source
[14] = human; remark: listed apart in the source
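Throughout, for Hepatotoxicity (association with vascular disease): count of indexed literature references reporting vascular liver injury in humans, e.g. peliosis hepatitis, hepatic veno-occlusive disease or Budd-Chiari syndrome.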
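Throughout, for Hepatotoxicity (benign tumour): value is a count of indexed literature references citing a benign tumour confirmed by histopathology.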
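Throughout, for Hepatotoxicity (choleostasis): human cholestatic liver injury, shown by histopathology or by peak ALT or AST elevation over alkaline phosphatase ratio below 2, value counts indexed literature reports.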
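Throughout, for Hepatotoxicity (chronic liver disease): chronic liver injury confirmed by histopathology or persistently raised serum aminotransferase activity beyond 6 months, value given as the count of indexed literature references.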
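Throughout, for Hepatotoxicity (cirrhosis): value is a count of indexed literature references reporting cirrhosis confirmed by histopathology.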
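Throughout, for Hepatotoxicity (cytolytic): human cytolytic liver injury, shown by histopathology or by a ratio above 5 of peak ALT or AST elevation to alkaline phosphatase elevation, value counts indexed references.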
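Throughout, for Hepatotoxicity (granulomatous hepatitis): value is a count of indexed literature references reporting granulomatous liver disease confirmed by histopathology.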
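Throughout, for Hepatotoxicity (malignant tumour): malignant tumour confirmed by histopathology, value gives the count of indexed literature references reporting it.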
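Throughout, for Hepatotoxicity (severe hepatitis): human clinical data: severe hepatitis, meaning potentially life-threatening liver failure or clinically observed cases, the value counts how many indexed literature references report it.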
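Throughout, for Hepatotoxicity (steatosis): steatosis confirmed by histopathology, value is the count of indexed references.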

CCN(CC)CC(=O)Oc1ccc(NC(C)=O)cc1 [PROPACETAMOL]
Hepatotoxicity (choleostasis) [1]: 0
Hepatotoxicity (moderate) [2]: 1
Hepatotoxicity (steatosis) [3]: 0
Hepatotoxicity (association with vascular disease) [4]: 0
Hepatotoxicity (acute) [5]: 0
Hepatotoxicity (acute) [6]: 0%
Hepatotoxicity (cirrhosis) [7]: 0
Hepatotoxicity (malignant tumour) [8]: 0
Hepatotoxicity (benign tumour) [9]: 0
Hepatotoxicity (moderate) [10]: 2.1%
Hepatotoxicity (chronic liver disease) [11]: 0
Hepatotoxicity (granulomatous hepatitis) [12]: 0
Hepatotoxicity (severe hepatitis) [13]: 0
Hepatotoxicity (cytolytic) [14]: 0

CC(C)C[C@H](NC(=O)[C@@H](O)[C@H](N)Cc1ccccc1)C(=O)O [UBENIMEX]
Hepatotoxicity (choleostasis) [1]: 0
Hepatotoxicity (moderate) [2]: 1
Hepatotoxicity (steatosis) [3]: 0
Hepatotoxicity (association with vascular disease) [4]: 0
Hepatotoxicity (acute) [5]: 0
Hepatotoxicity (acute) [6]: 0%
Hepatotoxicity (cirrhosis) [7]: 0
Hepatotoxicity (malignant tumour) [8]: 0
Hepatotoxicity (benign tumour) [9]: 0
Hepatotoxicity (moderate) [10]: 2.4%
Hepatotoxicity (chronic liver disease) [11]: 0
Hepatotoxicity (granulomatous hepatitis) [12]: 0
Hepatotoxicity (severe hepatitis) [13]: 0
Hepatotoxicity (cytolytic) [14]: 0

Cc1oc(=O)oc1CN1CCN(c2cc3c(cc2F)c(=O)c(C(=O)O)c2n3C(C)S2)CC1 (centres undefined) [PRULIFLOXACIN]
Hepatotoxicity (choleostasis) [1]: 0
Hepatotoxicity (moderate) [2]: 25
Hepatotoxicity (steatosis) [3]: 0
Hepatotoxicity (association with vascular disease) [4]: 0
Hepatotoxicity (acute) [5]: 0
Hepatotoxicity (acute) [6]: 0%
Hepatotoxicity (cirrhosis) [7]: 0
Hepatotoxicity (malignant tumour) [8]: 0
Hepatotoxicity (benign tumour) [9]: 0
Hepatotoxicity (moderate) [10]: 33.3%
Hepatotoxicity (chronic liver disease) [11]: 0
Hepatotoxicity (granulomatous hepatitis) [12]: 0
Hepatotoxicity (severe hepatitis) [13]: 0
Hepatotoxicity (cytolytic) [14]: 0

C(=N\NC1=NCCN1)/c1c2ccccc2c(/C=N/NC2=NCCN2)c2ccccc12 [BISANTRENE]
Hepatotoxicity (choleostasis) [1]: 1
Hepatotoxicity (moderate) [2]: 4
Hepatotoxicity (steatosis) [3]: 0
Hepatotoxicity (association with vascular disease) [4]: 0
Hepatotoxicity (acute) [5]: 1
Hepatotoxicity (acute) [6]: 0%
Hepatotoxicity (cirrhosis) [7]: 0
Hepatotoxicity (malignant tumour) [8]: 0
Hepatotoxicity (benign tumour) [9]: 0
Hepatotoxicity (moderate) [10]: 49%
Hepatotoxicity (chronic liver disease) [11]: 0
Hepatotoxicity (granulomatous hepatitis) [12]: 0
Hepatotoxicity (severe hepatitis) [13]: 0
Hepatotoxicity (cytolytic) [14]: 0

POVIDONE
Hepatotoxicity (choleostasis) [1]: 0
Hepatotoxicity (moderate) [2]: 0
Hepatotoxicity (steatosis) [3]: 0
Hepatotoxicity (association with vascular disease) [4]: 0
Hepatotoxicity (acute) [5]: 0
Hepatotoxicity (acute) [6]: 0%
Hepatotoxicity (cirrhosis) [7]: 1
Hepatotoxicity (malignant tumour) [8]: 0
Hepatotoxicity (benign tumour) [9]: 0
Hepatotoxicity (moderate) [10]: 0%
Hepatotoxicity (chronic liver disease) [11]: 0
Hepatotoxicity (granulomatous hepatitis) [12]: 0
Hepatotoxicity (severe hepatitis) [13]: 0
Hepatotoxicity (cytolytic) [14]: 0

CC(=O)N[C@@H]1[C@H](Oc2c3cc4cc2Oc2ccc(cc2Cl)[C@@H](O[C@@H]2O[C@@H](CO)[C@@H](O)[C@H](O)[C@@H]2NC(C)=O)[C@@H]2NC(=O)[C@H](NC(=O)[C@@H]4NC(=O)[C@H]4NC(=O)[C@@H](Cc5ccc(c(Cl)c5)O3)NC(=O)[C@H](N)c3ccc(O)c(c3)Oc3cc(O)cc4c3)c3ccc(O)c(c3)-c3c(O[C@H]4O[C@H](CO)[C@@H](O)[C@@H](O)[C@@H]4O)cc(O)cc3[C@@H](C(=O)O)NC2=O)O[C@@H](CO)[C@@H](O)[C@@H]1O
Hepatotoxicity (choleostasis) [1]: 1
Hepatotoxicity (moderate) [2]: 36
Hepatotoxicity (steatosis) [3]: 0
Hepatotoxicity (association with vascular disease) [4]: 0
Hepatotoxicity (acute) [5]: 4
Hepatotoxicity (acute) [6]: 0.9%
Hepatotoxicity (cirrhosis) [7]: 0
Hepatotoxicity (malignant tumour) [8]: 0
Hepatotoxicity (benign tumour) [9]: 0
Hepatotoxicity (moderate) [10]: 26.9%
Hepatotoxicity (chronic liver disease) [11]: 0
Hepatotoxicity (granulomatous hepatitis) [12]: 0
Hepatotoxicity (severe hepatitis) [13]: 0
Hepatotoxicity (cytolytic) [14]: 1

CN1CCN(CC(=O)N2c3ccccc3C(=O)Nc3cccnc32)CC1 [PIRENZEPINE]
Hepatotoxicity (choleostasis) [1]: 0
Hepatotoxicity (moderate) [2]: 2
Hepatotoxicity (steatosis) [3]: 0
Hepatotoxicity (association with vascular disease) [4]: 0
Hepatotoxicity (acute) [5]: 0
Hepatotoxicity (acute) [6]: 0%
Hepatotoxicity (cirrhosis) [7]: 0
Hepatotoxicity (malignant tumour) [8]: 0
Hepatotoxicity (benign tumour) [9]: 0
Hepatotoxicity (moderate) [10]: 0.7%
Hepatotoxicity (chronic liver disease) [11]: 0
Hepatotoxicity (granulomatous hepatitis) [12]: 0
Hepatotoxicity (severe hepatitis) [13]: 0
Hepatotoxicity (cytolytic) [14]: 0

CCC(C(=O)NC(N)=O)c1ccccc1 (centres undefined) [PHENETURIDE]
Hepatotoxicity (choleostasis) [1]: 0
Hepatotoxicity (moderate) [2]: 1
Hepatotoxicity (steatosis) [3]: 0
Hepatotoxicity (association with vascular disease) [4]: 0
Hepatotoxicity (acute) [5]: 0
Hepatotoxicity (acute) [6]: 0%
Hepatotoxicity (cirrhosis) [7]: 0
Hepatotoxicity (malignant tumour) [8]: 0
Hepatotoxicity (benign tumour) [9]: 0
Hepatotoxicity (moderate) [10]: 0%
Hepatotoxicity (chronic liver disease) [11]: 0
Hepatotoxicity (granulomatous hepatitis) [12]: 0
Hepatotoxicity (severe hepatitis) [13]: 0
Hepatotoxicity (cytolytic) [14]: 0

CCC/C=C/C=C/C(=O)O[C@H]1/C(=C/C(=O)OC)C[C@H]2C[C@H]([C@@H](C)O)OC(=O)C[C@H](O)C[C@@H]3C[C@H](OC(C)=O)C(C)(C)[C@](O)(C[C@@H]4C/C(=C/C(=O)OC)C[C@H](/C=C/C(C)(C)[C@]1(O)O2)O4)O3 [BRYOSTATIN 1]
Hepatotoxicity (choleostasis) [1]: 1
Hepatotoxicity (moderate) [2]: 2
Hepatotoxicity (steatosis) [3]: 0
Hepatotoxicity (association with vascular disease) [4]: 0
Hepatotoxicity (acute) [5]: 1
Hepatotoxicity (acute) [6]: 8.3%
Hepatotoxicity (cirrhosis) [7]: 0
Hepatotoxicity (malignant tumour) [8]: 0
Hepatotoxicity (benign tumour) [9]: 0
Hepatotoxicity (moderate) [10]: 16.7%
Hepatotoxicity (chronic liver disease) [11]: 0
Hepatotoxicity (granulomatous hepatitis) [12]: 0
Hepatotoxicity (severe hepatitis) [13]: 0
Hepatotoxicity (cytolytic) [14]: 0

CN1C(CSCC(F)(F)F)Nc2cc(Cl)c(S(N)(=O)=O)cc2S1(=O)=O (centres undefined) [POLYTHIAZIDE]
Hepatotoxicity (choleostasis) [1]: 1
Hepatotoxicity (moderate) [2]: 0
Hepatotoxicity (steatosis) [3]: 0
Hepatotoxicity (association with vascular disease) [4]: 0
Hepatotoxicity (acute) [5]: 1
Hepatotoxicity (acute) [6]: 0%
Hepatotoxicity (cirrhosis) [7]: 0
Hepatotoxicity (malignant tumour) [8]: 0
Hepatotoxicity (benign tumour) [9]: 0
Hepatotoxicity (moderate) [10]: 0%
Hepatotoxicity (chronic liver disease) [11]: 0
Hepatotoxicity (granulomatous hepatitis) [12]: 0
Hepatotoxicity (severe hepatitis) [13]: 0
Hepatotoxicity (cytolytic) [14]: 1

CN(C)CCC=C1c2ccccc2C=Cc2ccccc21 [CYCLOBENZAPRINE]
Hepatotoxicity (choleostasis) ([1]; Liver): 0
Hepatotoxicity (moderate) [2]: 1
Hepatotoxicity (steatosis) [3]: 0
Hepatotoxicity (association with vascular disease) [4]: 0
Hepatotoxicity (acute) [5]: 1
Hepatotoxicity (acute) ([6]; Liver): 0%
Hepatotoxicity (cirrhosis) [7]: 0
Hepatotoxicity (malignant tumour) [8]: 0
Hepatotoxicity (benign tumour) [9]: 0
Hepatotoxicity (moderate) ([10]; Liver): 0%
Hepatotoxicity (chronic liver disease) [11]: 0
Hepatotoxicity (granulomatous hepatitis) ([12]; Liver): 0
Hepatotoxicity (severe hepatitis) ([13]; Liver): 0
Hepatotoxicity (cytolytic) ([14]; Liver): 0
